Two molecules from ChEMBL document CHEMBL1151237, “Chamuvarinin, an acetogenin bearing a tetrahydropyran ring from the roots of Uvaria chamae” (J Nat Prod, 2004) can be followed below.

Usually IC50 stands for the concentration needed to halve the response being measured. Low readings indicate inhibition by little substance, high ones a need for much substance.

The nature of this assay: Cytotoxicity against human KB3-1 cells by colorimetric assay. It is filed as functional, cell-based. To be noted: KB 3-1.

Turning to `CCCCCC[C@H](O)CCC[C@H](O)[C@H]1CC[C@H]([C@H]2CC[C@H]([C@H](O)CCCCCCCCCCCCC3=C[C@H](C)OC3=O)O2)O1` [SQUAMOCIN], half-maximal inhibition (IC50) was put at 0.003 nM.
In the case of `CCCCCCC1CCCC(C2CCC([C@H]3CC[C@H]([C@H](O)CCCCCCCCCCCCC4=C[C@H](C)OC4=O)O3)O2)O1` (some centres not stated) [CHAMUVARININ] it was 0.8 nM.
